Columns and labels:
BxPC-3 cells = assay: On-Cell ELISA binding, BxPC3 cells (TROP2 high); format: cell-based, human; set-up: AUC (BxPC-3): unit not given beside the values; conditions: for EC50: On-Cell ELISA, TROP2 high cells; for ΔAUC: AUC (BxPC-3) minus AUC (MDA-MB-231-KWL); for AUC (BxPC-3): area under On-Cell ELISA binding curve; for ΔAUC/AUC (BxPC-3): differential BxPC3 vs MDA-MB-231-KWL
Method: (§1) Cell lines expressing TROP2.
(§2) Cells were plated in duplicate onto 96-well plates, and primary antibody was diluted in cell culture medium with a starting concentration of 30 μg/mL (200 nM) with a dilution factor of 1:5. After 3× wash, secondary antibody was added for 1 hour at 1 ug/ml, washed three times and absorbance was measured at 450 nm. Data was plotted and analyzed. EC50 ([…]) was measured along with area under the curve (AUC) for each cell line.

MDA-MB-231-KWL cells = assay: On-Cell ELISA binding, MDA-MB-231-KWL cells (TROP2 low); format: cell-based; set-up: AUC (MDA-MB-231-KWL): unit not given beside the values; conditions: for EC50: read-out: MDA-MB-231-KWL EC50, On-Cell ELISA, TROP2 low cells; for AUC (MDA-MB-231-KWL): area under On-Cell ELISA binding curve
Method: as §1, §2

Substance | EC50 (BxPC-3 cells) | EC50 (MDA-MB-231-KWL cells) | other results
mAb_LC_Hm_F108S: Sacituzumab HC F108S mutein, Sacituzumab LC | 0.321 nM | 0.651 nM | –
mAb_LC_Hm_S103T: Sacituzumab HC S103T mutein, Sacituzumab LC | – | – | ΔAUC (BxPC-3 cells): 171.04; AUC (BxPC-3) (BxPC-3 cells): 204.7; ΔAUC/AUC (BxPC-3) (BxPC-3 cells): 0.538; AUC (MDA-MB-231-KWL) (MDA-MB-231-KWL cells): 33.66
mAb_Lm_V29R_HC: Sacituzumab LC V29R mutein, Sacituzumab HC | 0.285 nM | – | –
mAb_LC_Hm_W106H: Sacituzumab HC W106H mutein, Sacituzumab LC | 1.16 nM | – | ΔAUC (BxPC-3 cells): 192.47; AUC (BxPC-3) (BxPC-3 cells): 215.2; ΔAUC/AUC (BxPC-3) (BxPC-3 cells): 0.605; AUC (MDA-MB-231-KWL) (MDA-MB-231-KWL cells): 22.73
mAb_Lm_Y53N_HC: Sacituzumab LC Y53N mutein, Sacituzumab HC | 0.225 nM | 0.843 nM | –
mAb_LC_Hm_F108Q: Sacituzumab HC F108Q mutein, Sacituzumab LC | 0.316 nM | 0.365 nM | –
mAb_Lm_I93G_HC: Sacituzumab LC I93G mutein, Sacituzumab HC | 0.182 nM | 0.221 nM | –
mAb_Lm_Y53R_HC: Sacituzumab LC Y53R mutein, Sacituzumab HC | 0.357 nM | 0.546 nM | –
mAb_LC_Hm_W106A: Sacituzumab HC W106A mutein, Sacituzumab LC | 1.68 nM | – | –
mAb_LC_Hm_G33I: Sacituzumab HC G33I mutein, Sacituzumab LC | 0.217 nM | 0.768 nM | –
mAb_LC_Hm_F101T: Sacituzumab HC F101T mutein, Sacituzumab LC | 0.336 nM | 0.871 nM | –
mAb_Lm_Y53D_HC: Sacituzumab LC Y53D mutein, Sacituzumab HC; HC SEQ ID NO: 11, LC SEQ ID NO: 13 | 0.238 nM | 4.89 nM | –
mAb_Lm_S50L_HC: Sacituzumab LC S50L mutein, Sacituzumab HC | 23.8 nM | – | –
mAb_Lm_H91K_HC: Sacituzumab LC H91K mutein, Sacituzumab HC | 0.899 nM | 1.96 nM | –
mAb_LC_Hm_N31P: Sacituzumab HC N31P mutein, Sacituzumab LC | 0.369 nM | 1.16 nM | –
mAb_Lm_S30R_HC: Sacituzumab LC S30R mutein, Sacituzumab HC | 0.697 nM | – | –
mAb_Lm_Y92A_HC: Sacituzumab LC Y92A mutein, Sacituzumab HC | 9.2 nM | – | –
mAb_Lm_T94F_HC: Sacituzumab LC T94F mutein, Sacituzumab HC | 0.233 nM | 0.374 nM | –
mAb_Lm_Y53P_HC: Sacituzumab LC Y53P mutein, Sacituzumab HC | 0.218 nM | 0.629 nM | –

Substance | EC50 (BxPC-3 cells) | EC50 (MDA-MB-231-KWL cells) | other results
mAb_LC_Hm_Y107N: Sacituzumab HC Y107N mutein, Sacituzumab LC | 0.715 nM | 1.88 nM | –
mAb_Lm_Y53V_HC: Sacituzumab LC Y53V mutein, Sacituzumab HC | 0.225 nM | 0.343 nM | –
mAb_LC_Hm_F101E: Sacituzumab HC F101E mutein, Sacituzumab LC | 0.482 nM | 2.69 nM | –
mAb_Lm_D28H_HC: Sacituzumab LC D28H mutein, Sacituzumab HC | 0.159 nM | 0.136 nM | –
mAb_LC_Hm_F108T: Sacituzumab HC F108T mutein, Sacituzumab LC | 0.681 nM | 1.2 nM | –
mAb_Lm_Y53S_HC: Sacituzumab LC Y53S mutein, Sacituzumab HC | 0.28 nM | 0.304 nM | –
mAb_Lm_A32P_HC: Sacituzumab LC A32P mutein, Sacituzumab HC | 0.922 nM | – | –
mAb_Lm_Q89V_HC: Sacituzumab LC Q89V mutein, Sacituzumab HC | 1.68 nM | 8.46 nM | –
mAb_Lm_Y92N_HC: Sacituzumab LC Y92N mutein, Sacituzumab HC | 0.839 nM | – | –
mAb_LC_Hm_W106L: Sacituzumab HC W106L mutein, Sacituzumab LC | 0.326 nM | – | –
mAb_LC_Hm_Y32E: Sacituzumab HC Y32E mutein, Sacituzumab LC | 0.416 nM | 1.58 nM | –
mAb_Lm_A32Q_HC: Sacituzumab LC A32Q mutein, Sacituzumab HC | 18.4 nM | – | –
mAb_LC_Hm_Y105S: Sacituzumab HC Y105S mutein, Sacituzumab LC | 0.312 nM | – | –
mAb_LC_Hm_F29G: Sacituzumab HC F29G mutein, Sacituzumab LC | 0.32 nM | 0.448 nM | –
mAb_Lm_Y92E_HC: Sacituzumab LC Y92E mutein, Sacituzumab HC | 6.95 nM | – | –
mAb_LC_Hm_S104D: Sacituzumab HC S104D mutein, Sacituzumab LC | 0.214 nM | – | –
mAb_Lm_H91Y_HC: Sacituzumab LC H91Y mutein, Sacituzumab HC | 3.56 nM | – | –
mAb_LC_Hm_G33S: Sacituzumab HC G33S mutein, Sacituzumab LC | 2.24 nM | – | –
mAb_Lm_S50T_HC: Sacituzumab LC S50T mutein, Sacituzumab HC | 0.222 nM | 0.568 nM | –

Reference: patent US20240358847A1, “TROP2 BINDERS AND CONJUGATES THEREOF” (MERCK SHARP & DOHME LLC, priority 2023, published 2024)
